Active and inactive are the calls of the source. The calls are words filed in the database; no cut-off is given here.
Tests used:
[1] = target: Tyrosine-protein kinase JAK1 (Homo sapiens) (UniProt P23458); experiment: Inhibition of JAK1 domain2 ACT labeling site in human A-375 cells at 0.5 uM by KiNativ Profiling analysis relative to control; type: cell-based
[2] = target: T1, Mitogen-activated protein kinase kinase kinase 5 (Homo sapiens) (UniProt Q99683); experiment: Inhibition of MAP3K5 Lys2 labeling site in human A-375 cells at 0.05 uM by KiNativ Profiling analysis relative to control; type: cell-based
T1 sequence (whole entry): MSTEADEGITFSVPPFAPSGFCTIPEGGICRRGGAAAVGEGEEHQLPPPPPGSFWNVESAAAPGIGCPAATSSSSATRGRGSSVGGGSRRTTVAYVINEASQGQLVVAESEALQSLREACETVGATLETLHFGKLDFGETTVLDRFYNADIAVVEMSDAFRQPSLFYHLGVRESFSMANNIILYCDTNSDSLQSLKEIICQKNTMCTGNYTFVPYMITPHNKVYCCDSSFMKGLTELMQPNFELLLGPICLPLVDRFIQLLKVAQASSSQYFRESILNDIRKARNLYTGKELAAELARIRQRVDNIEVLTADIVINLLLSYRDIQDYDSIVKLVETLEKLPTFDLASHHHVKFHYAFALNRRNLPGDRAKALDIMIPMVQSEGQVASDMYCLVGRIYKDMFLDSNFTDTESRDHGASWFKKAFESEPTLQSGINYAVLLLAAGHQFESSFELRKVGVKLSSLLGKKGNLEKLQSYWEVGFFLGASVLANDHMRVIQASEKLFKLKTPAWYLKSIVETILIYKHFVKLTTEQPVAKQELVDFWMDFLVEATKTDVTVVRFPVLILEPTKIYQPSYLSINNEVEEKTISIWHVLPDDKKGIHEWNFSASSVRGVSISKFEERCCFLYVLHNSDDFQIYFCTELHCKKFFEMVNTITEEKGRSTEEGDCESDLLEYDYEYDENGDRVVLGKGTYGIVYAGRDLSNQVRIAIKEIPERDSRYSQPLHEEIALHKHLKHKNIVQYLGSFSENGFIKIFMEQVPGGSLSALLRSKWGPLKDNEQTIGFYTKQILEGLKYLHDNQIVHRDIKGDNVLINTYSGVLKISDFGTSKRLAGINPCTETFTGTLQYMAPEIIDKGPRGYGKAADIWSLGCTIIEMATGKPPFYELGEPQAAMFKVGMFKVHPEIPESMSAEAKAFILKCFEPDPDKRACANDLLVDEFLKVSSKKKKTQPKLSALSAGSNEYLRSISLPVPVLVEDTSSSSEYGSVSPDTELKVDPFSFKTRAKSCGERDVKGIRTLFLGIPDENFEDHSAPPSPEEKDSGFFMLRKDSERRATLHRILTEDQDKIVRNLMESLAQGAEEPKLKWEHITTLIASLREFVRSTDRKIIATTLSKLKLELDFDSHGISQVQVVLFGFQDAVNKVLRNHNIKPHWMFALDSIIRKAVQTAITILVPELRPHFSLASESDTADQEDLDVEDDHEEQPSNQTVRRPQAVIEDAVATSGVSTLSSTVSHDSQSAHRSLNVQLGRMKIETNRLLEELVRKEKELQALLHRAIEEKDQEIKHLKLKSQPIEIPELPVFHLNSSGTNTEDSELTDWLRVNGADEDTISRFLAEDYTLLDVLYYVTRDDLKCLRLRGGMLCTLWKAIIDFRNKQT

[3] = target: MAP kinase-activated protein kinase 5 (Homo sapiens) (UniProt Q8IW41); experiment: Inhibition of MAPKAPK5 (unknown origin) at 10 uM by Ambit Kinomescan binding assay
[4] = target: T2, Dual specificity mitogen-activated protein kinase kinase 4 (Homo sapiens) (UniProt P45985); experiment: Inhibition of MAP2K4 Lys1 labeling site in human A-375 cells at 0.5 uM by KiNativ Profiling analysis relative to control; type: cell-based
T2 sequence (whole entry): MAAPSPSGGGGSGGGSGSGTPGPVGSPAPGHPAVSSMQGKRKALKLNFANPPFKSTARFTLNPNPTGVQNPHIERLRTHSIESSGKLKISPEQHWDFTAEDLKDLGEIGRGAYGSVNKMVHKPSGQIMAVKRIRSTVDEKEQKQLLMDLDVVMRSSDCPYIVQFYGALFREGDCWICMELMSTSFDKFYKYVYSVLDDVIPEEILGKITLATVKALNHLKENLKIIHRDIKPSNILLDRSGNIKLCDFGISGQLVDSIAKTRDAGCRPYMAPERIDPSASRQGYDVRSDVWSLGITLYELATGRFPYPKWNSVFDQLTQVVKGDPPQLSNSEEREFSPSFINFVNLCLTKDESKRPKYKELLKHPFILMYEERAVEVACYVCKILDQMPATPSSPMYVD

[5] = target: p38 delta/gamma (Homo sapiens) (UniProt O15264+P53778); experiment: Inhibition of p38d/g K2 labeling site in human Huh-7 cells at 10 uM by KiNativ Profiling analysis relative to control; type: cell-based
[6] = target: Ribosomal protein S6 kinase alpha-6 (Homo sapiens) (UniProt Q9UK32); experiment: Inhibition of N-terminal RPS6KA6 kinase domain 1 (unknown origin) at 10 uM by Ambit Kinomescan binding assay
[7] = target: 5'-AMP-activated protein kinase catalytic subunit alpha-1 (Homo sapiens) (UniProt Q13131); experiment: Inhibition of AMPKa1 Lys2 labeling site in human Huh-7 cell lysate at 1 uM by KiNativ Profiling analysis relative to control; type: subcellular
[8] = target: Calcium/calmodulin-dependent protein kinase type II subunit gamma (Homo sapiens) (UniProt Q13555); experiment: Inhibition of CaMK2g Lys1 labeling site harbouring TSTQEYAAKIINTK in human Huh-7 cells at 1 uM by KiNativ Profiling analysis relative to control; type: cell-based
[9] = target: Serine/threonine-protein kinase Nek6 (Homo sapiens) (UniProt Q9HC98); experiment: Inhibition of NEK6 Lys2 labeling site harbouring DIKPANVFITATGVVK in human Huh-7 cells at 1 uM by KiNativ Profiling analysis relative to control; type: cell-based
[10] = target: Serine/threonine-protein kinase 4 (Homo sapiens) (UniProt Q13043); experiment: Inhibition of MST1 Lys1 labeling site harbouring AIHKETGQIVAIKQVPVESDLQEIIK in human Huh-7 cell lysate at 1 uM by KiNativ Profiling analysis relative to control
[11] = target: Ribosomal protein S6 kinase alpha-3 (Homo sapiens) (UniProt P51812); experiment: Inhibition of RSK2 domain2 Lys2 labeling site harbouring DLKPSNILYVDESGNPESIR in human Huh-7 cells at 1 uM by KiNativ Profiling analysis relative to control; type: cell-based
[12] = Inhibition of KHS1 Lys1 labeling site in human Huh-7 cell lysate at 1 uM by KiNativ Profiling analysis relative to control; conditions: condition cancer

Chain of Ribosomal protein S6 kinase alpha-3 (Homo sapiens) (P51812 whole entry, the tested form may be a part): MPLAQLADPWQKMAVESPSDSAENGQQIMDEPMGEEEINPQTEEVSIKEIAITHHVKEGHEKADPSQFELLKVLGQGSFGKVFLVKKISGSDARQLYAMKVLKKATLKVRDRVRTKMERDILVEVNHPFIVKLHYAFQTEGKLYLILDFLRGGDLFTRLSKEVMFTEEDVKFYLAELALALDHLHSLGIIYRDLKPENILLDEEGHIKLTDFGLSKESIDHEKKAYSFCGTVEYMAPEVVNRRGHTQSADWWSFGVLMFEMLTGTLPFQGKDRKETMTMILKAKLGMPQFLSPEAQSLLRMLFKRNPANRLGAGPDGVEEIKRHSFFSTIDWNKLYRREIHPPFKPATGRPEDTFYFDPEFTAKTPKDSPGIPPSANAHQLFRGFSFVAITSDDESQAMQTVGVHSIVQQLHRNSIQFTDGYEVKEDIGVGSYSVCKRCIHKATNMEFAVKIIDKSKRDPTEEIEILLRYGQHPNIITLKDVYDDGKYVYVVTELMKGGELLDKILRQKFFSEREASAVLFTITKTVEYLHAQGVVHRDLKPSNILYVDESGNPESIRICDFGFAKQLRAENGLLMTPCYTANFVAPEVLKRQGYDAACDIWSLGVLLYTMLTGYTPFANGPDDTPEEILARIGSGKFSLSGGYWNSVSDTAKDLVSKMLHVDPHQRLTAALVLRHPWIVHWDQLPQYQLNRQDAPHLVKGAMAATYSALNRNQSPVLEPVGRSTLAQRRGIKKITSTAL
Chain of MAP kinase-activated protein kinase 5 (Homo sapiens) (Q8IW41 whole entry): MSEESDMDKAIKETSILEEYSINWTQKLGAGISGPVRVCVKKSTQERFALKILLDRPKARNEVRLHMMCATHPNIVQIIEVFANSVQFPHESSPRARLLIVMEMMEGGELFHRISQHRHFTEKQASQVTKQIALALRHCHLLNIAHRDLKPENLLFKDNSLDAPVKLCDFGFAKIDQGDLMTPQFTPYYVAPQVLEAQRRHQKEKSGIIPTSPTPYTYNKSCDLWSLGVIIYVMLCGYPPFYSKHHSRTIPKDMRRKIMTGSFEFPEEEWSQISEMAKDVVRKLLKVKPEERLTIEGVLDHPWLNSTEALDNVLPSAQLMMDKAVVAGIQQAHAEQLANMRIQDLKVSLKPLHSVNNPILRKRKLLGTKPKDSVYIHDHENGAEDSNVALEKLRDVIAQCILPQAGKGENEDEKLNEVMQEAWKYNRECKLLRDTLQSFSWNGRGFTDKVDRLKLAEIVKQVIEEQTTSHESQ
Chain of 5'-AMP-activated protein kinase catalytic subunit alpha-1 (Homo sapiens) (Q13131 whole entry, looked up): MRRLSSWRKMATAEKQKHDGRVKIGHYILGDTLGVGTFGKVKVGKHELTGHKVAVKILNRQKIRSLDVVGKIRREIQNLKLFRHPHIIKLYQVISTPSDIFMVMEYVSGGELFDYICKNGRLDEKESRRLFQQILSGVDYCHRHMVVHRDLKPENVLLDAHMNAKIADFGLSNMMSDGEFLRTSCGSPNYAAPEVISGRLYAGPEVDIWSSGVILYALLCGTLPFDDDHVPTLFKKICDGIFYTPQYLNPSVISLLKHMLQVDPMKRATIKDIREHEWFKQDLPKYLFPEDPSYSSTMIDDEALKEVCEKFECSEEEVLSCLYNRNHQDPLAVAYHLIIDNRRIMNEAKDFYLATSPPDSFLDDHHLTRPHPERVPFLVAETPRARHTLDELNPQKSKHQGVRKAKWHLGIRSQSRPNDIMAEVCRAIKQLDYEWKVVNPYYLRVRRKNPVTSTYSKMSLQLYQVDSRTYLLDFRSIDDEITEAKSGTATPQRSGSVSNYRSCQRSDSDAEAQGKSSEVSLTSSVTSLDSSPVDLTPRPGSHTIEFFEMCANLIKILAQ
Chain of Calcium/calmodulin-dependent protein kinase type II subunit gamma (Homo sapiens) (Q13555 whole entry): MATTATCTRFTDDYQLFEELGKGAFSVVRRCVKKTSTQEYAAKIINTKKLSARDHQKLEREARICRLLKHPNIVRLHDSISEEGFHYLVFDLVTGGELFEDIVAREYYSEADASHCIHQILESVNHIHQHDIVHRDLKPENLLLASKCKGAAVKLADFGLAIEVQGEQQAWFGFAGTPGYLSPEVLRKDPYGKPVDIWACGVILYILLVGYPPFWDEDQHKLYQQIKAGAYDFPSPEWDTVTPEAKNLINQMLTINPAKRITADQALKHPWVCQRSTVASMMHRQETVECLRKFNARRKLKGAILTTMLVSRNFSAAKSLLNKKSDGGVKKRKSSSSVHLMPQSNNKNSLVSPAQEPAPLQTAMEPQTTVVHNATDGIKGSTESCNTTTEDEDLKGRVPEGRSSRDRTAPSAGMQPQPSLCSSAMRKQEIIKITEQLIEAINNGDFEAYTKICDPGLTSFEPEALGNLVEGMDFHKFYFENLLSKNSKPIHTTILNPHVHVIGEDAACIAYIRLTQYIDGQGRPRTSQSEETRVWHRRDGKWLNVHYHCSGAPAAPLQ
Chain of Serine/threonine-protein kinase 4 (Homo sapiens) (Q13043 whole entry, looked up, the tested form may be a part): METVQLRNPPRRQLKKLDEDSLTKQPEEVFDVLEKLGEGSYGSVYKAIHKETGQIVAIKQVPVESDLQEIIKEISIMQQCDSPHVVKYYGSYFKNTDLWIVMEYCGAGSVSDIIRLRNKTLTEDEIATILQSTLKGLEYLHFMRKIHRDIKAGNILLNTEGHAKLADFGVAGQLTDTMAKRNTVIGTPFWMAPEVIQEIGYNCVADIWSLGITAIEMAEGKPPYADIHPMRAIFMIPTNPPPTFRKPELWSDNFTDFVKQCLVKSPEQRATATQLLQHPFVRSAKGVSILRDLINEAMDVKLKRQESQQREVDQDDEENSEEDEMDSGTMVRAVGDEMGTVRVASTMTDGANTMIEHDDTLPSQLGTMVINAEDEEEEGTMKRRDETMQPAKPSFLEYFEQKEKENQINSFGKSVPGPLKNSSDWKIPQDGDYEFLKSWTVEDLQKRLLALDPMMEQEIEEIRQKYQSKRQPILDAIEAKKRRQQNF
Chain of Tyrosine-protein kinase JAK1 (Homo sapiens) (P23458 whole entry, the tested form may be a part): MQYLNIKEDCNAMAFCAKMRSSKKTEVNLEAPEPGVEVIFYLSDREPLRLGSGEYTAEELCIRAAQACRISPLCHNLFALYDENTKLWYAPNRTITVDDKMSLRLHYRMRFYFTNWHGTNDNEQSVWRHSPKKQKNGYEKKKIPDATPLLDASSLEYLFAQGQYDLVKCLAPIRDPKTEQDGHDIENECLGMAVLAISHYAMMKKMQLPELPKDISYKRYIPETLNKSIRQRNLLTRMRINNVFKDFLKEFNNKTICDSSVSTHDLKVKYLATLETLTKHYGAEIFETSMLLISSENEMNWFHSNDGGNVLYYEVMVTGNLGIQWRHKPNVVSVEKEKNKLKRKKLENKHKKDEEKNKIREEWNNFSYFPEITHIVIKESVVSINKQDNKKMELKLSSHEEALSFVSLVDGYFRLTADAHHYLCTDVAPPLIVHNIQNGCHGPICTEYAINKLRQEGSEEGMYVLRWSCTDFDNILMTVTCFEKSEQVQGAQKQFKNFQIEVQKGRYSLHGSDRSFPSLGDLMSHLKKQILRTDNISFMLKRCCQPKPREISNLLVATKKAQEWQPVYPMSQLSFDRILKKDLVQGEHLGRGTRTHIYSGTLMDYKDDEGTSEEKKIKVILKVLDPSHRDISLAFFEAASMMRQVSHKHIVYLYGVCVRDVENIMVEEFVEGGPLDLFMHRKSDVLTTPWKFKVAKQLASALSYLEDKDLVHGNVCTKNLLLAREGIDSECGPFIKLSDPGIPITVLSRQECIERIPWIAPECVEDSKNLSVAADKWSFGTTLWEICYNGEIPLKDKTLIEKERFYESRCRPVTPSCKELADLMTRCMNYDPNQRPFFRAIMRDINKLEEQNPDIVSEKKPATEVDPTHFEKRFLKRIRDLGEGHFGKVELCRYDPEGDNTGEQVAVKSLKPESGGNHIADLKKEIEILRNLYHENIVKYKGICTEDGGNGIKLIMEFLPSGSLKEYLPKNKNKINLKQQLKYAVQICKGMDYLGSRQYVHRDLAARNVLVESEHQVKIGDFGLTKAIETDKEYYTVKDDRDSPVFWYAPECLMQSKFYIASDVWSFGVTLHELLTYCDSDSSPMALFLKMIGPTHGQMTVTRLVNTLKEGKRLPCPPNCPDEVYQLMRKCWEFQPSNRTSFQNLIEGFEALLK
Chain of Ribosomal protein S6 kinase alpha-6 (Homo sapiens) (Q9UK32 whole entry, the tested form may be a part): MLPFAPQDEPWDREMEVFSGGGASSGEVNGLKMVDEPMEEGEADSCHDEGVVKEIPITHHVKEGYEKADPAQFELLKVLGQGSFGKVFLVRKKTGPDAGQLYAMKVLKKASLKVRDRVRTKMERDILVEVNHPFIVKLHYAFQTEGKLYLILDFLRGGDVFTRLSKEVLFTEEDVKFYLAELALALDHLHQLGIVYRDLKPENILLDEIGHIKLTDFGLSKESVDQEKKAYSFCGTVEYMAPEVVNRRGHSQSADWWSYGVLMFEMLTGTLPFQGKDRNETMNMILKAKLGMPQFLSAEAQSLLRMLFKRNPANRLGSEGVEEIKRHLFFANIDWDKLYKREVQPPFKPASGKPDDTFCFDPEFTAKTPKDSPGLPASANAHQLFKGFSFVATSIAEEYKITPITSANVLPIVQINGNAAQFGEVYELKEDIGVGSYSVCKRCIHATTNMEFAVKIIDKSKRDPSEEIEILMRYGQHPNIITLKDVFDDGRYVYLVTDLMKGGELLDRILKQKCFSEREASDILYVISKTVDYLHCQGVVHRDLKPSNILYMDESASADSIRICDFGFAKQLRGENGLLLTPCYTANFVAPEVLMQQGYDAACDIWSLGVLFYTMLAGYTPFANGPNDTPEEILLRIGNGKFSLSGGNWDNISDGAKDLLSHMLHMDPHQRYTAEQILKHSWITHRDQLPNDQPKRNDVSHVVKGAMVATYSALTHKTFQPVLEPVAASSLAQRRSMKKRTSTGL
Chain of Serine/threonine-protein kinase Nek6 (Homo sapiens) (Q9HC98 whole entry): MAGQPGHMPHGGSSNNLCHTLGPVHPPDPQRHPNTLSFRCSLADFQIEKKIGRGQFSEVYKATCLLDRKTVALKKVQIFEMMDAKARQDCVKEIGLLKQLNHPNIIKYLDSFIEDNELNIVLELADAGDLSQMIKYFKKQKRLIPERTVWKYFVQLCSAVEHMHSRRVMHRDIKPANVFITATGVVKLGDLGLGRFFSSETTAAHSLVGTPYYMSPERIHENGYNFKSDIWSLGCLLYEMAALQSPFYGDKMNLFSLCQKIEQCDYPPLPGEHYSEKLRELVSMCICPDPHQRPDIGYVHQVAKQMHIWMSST

`CCN1CCN(Cc2ccc(NC(=O)c3ccc(C)c(/C=C/c4cnc5[nH]ccc5c4OC)c3)cc2C(F)(F)F)CC1` showed an inhibition [1] of 5%.
With `CCN1CCN(Cc2ccc(NC(=O)c3ccc(C)c(Oc4ccnc5[nH]ccc45)c3)cc2C(F)(F)F)CC1` the inhibition [2] was -6.6%, the inhibition [3] was “inactive” and the inhibition [4] was -4%. For the same molecule, the inhibition [5] was 65% and the inhibition [6] was “inactive”.
For `CNc1cc(Oc2cc(C(=O)Nc3cc(N4CCN(C)CC4)cc(C(F)(F)F)c3)ccc2C)ncn1`, the inhibition [7] was 0.5%, the inhibition [8] was 27.1% and the inhibition [9] was -2.7%. It also gave an inhibition [10] of 12.8%, an inhibition [11] of 11.7% and an inhibition at 1 µM [12] of -10.2%.
